Measured values published in US10117837B2, “Methods of preparing stimuli-responsive multifunctional nanoparticles” (priority 2017, dated 2018).

Experiments:
OVCAR-3 cells [1] = test: Cell viability (MTS assay) in OVCAR-3 cells; assay type: cell-based, human; details: OVCAR-3, 48 hours, various concentrations
Procedure: (§1) The cytotoxicity and anticancer effect of the stimuli-responsive multifunctional nanoparticle of the present invention was evaluated by cell viability assay in NIH3T3 and OVCAR-3 cells. The cells were seeded in a 96-well plate at a density of 5×10^3 cells/well and incubated at 37° C. for 24 hours. Next, DOX.HCl, the HA-cys-ADOX nanoparticles, or the LHRH-HA-cys-ADOX nanoparticles dissolved in DMEM at predetermined concentrations equivalent to DOX was added to the cells. Cells treated with DMEM were the negative control group. After incubation at 37° C. for 48 hours, the cells were washed with PBS (pH 7.4). Cell viability was measured by MTS assay (CellTiter 96® AQueous One Solution Cell Proliferation Assay (Promega, USA)) according to the manufacturer's instructions and calculated as the ratio of light absorbance at […] of the experimental group to that of the negative control group.

OVCAR-3 cells [2] = test: Cellular uptake by fluorescence microscopy in OVCAR-3 cells; assay type: cell-based, human; details: 4 hours, equivalent to 50 mg/mL DOX
Procedure: The cellular uptake of the stimuli-responsive multifunctional nanoparticle of the present invention and the intracellular drug delivery were investigated by fluorescence microscopy. Human ovarian cancer cells OVCAR-3 and mouse embryonic fibroblasts NIH3T3 were cultured to 70-80% confluence and seeded onto 4-well chamber slides (BD Falcon, USA) at a density of 1×10^5 cells/well. After incubation at 37° C. for 24 hours, DOX.HCl, the HA-cys-ADOX nanoparticles (referred to as HA NPs), or the LHRH-HA-cys-ADOX nanoparticles (referred to as LHRH NPs) dissolved in DMEM at concentrations equivalent to 50 mg/mL DOX was added to the cells for a 2-hour incubation at 37° C. Cells treated with DMEM were the negative control group (NC). Next, fluorescent dyes Lysotracker Green and DAPI in DMEM were sequentially added to the abovementioned cells to stain endosome/lysosome for 2 hours and nuclei for 1 hour. After all the reagents were removed, the cells were washed with PBS (pH 7.4) three times, followed by addition of a mounting medium to fix the cells and prevent fluorescence fading. Cells were examined using a fluorescent microscope (Zeiss, Germany).

[3] = tested on: OVCAR-3/luc orthotopic ovarian tumor; test: H&E staining of ovarian tumor sections; assay type: in vivo, nude mice; details: after 20 days of treatment
Procedure: (§2) Tumors and normal ovaries from mice with different treatments were collected for histological assay after mice were sacrificed. […] paraffin tissue sections were prepared for analysis. Morphology of tumors and normal ovaries were examined by haematoxylin and eosin (H&E) staining. TUNEL staining were used for the live/dead assay in the tissue sections using DeadEnd™ Fluorometric TUNEL System (Promega, USA). Tissue sections were examined at magnification of 400× using fluorescent microscope (Zeiss, Germany).
(§3) The therapeutic effect of the stimuli-responsive multifunctional nanoparticle of the present invention on ovarian cancer cells was further analyzed histologically after the mice were treated differently as mentioned above for 20 days and sacrificed.

[4] = tested on: OVCAR-3/luc orthotopic ovarian tumor; test: Anti-tumor effect in orthotopic ovarian tumor xenograft model, ROI size by bioluminescence imaging; assay type: in vivo, nude mice; details: day 20, dose equivalent to 5 mg/kg of DOX via tail vein
Description: The orthotopic human ovarian cancer xenograft model was established using 6-8 week old female athymic nude mice purchased from National Laboratory Animal Center (Taipei, Taiwan). All mouse procedures were approved by the Institutional Animal Care and Use Committee (IACUC) of National Tsing Hua University. Prior to surgery, the mouse was laid dorsal side up under anesthetic. The incision was made left or right of the midline and directly above the ovarian fat pad. The ovarian fat pad was gently pulled out and rested onto a sterile saline soaked gauze pad. Under a dissecting microscope, the ovary was allowed for the insertion of a 30 gauge needle into the bursa. Suspension (1×10^6) of OVCAR-3/luc cells in a maximum volume of […] was slowly injected between the bursa and the ovary. […]
Growth of tumor was monitored by bioluminescence imaging (BLI) using in vivo imaging system (Caliper Life Sciences). […] Prior to being monitored, the tumor-implanted mice were injected intraperitoneally with 150 mg/kg of D-luciferin substrate. The Regions of Interest (ROIs) in tumor area were selected and used for quantification of tumor size by the software provided by the Caliper Life Sciences. Volumes or sizes of ROIs were calculated as L×W^2/2, where L was the largest and W was the smallest diameter of each ROI. […]

NIH3T3 cells = test: Cell viability (MTS assay) in NIH3T3 cells; assay type: cell-based, mouse; details: NIH3T3, 48 hours, various concentrations
Procedure: as §1

[5] = tested on: OVCAR-3/luc orthotopic ovarian tumor; test: TUNEL staining of ovarian tumor sections; assay type: in vivo, nude mice; details: after 20 days of treatment
Procedure: as §2, §3

`COc1cccc2c1C(=O)c1c(O)c3c(c(O)c1C2=O)C[C@@](O)(C(=O)CO)C[C@@H]3O[C@H]1C[C@H](N)[C@H](O)[C@H](C)O1.Cl` [free DOX, doxorubicin hydrochloride] was tested. Which “cytotoxicity / anticancer effect” value (OVCAR-3 cells [1]) did it give?
The value was “dose-dependent”.

What about the “difference in intensity of intracellular DOX fluorescence between OVCAR-3 and NIH3T3 cells” value (OVCAR-3 cells [2]) of the same compound?
Its value is “no difference”.

What about the “tumor cell morphology (H&E staining)” value [3] of the same compound?
Its value is “cell proliferation with dense nuclei in random pattern”.

What about the “ROI size relative to that of the LHRH-NPs/Cy5.5-treated mice” value [4] of the same compound?
Its value is 4.3 fold.

What about the cytotoxicity (NIH3T3 cells) of the same compound?
The cytotoxicity was “dose-dependent”.

And the “TUNEL fluorescence signal (apoptotic cells) in tumors” value [5]?
Its value is “no significant TUNEL fluorescence signal”.
